Laboratory results: patent US8101766B2, “Crystalline form of a biphenyl compound” (Theravance, Inc., priority 2004, dated 2012)

What was measured:
hM2 receptor = target: T1, hM2 receptor (Homo sapiens, UniProt P08172); assay: Blockade of oxotremorine-stimulated [35S]GTPγS binding in CHO-K1 cells expressing the hM2 receptor; assay type: biochemical
T1 construct: expressed in transfected cells
T1 sequence (P08172 1-466): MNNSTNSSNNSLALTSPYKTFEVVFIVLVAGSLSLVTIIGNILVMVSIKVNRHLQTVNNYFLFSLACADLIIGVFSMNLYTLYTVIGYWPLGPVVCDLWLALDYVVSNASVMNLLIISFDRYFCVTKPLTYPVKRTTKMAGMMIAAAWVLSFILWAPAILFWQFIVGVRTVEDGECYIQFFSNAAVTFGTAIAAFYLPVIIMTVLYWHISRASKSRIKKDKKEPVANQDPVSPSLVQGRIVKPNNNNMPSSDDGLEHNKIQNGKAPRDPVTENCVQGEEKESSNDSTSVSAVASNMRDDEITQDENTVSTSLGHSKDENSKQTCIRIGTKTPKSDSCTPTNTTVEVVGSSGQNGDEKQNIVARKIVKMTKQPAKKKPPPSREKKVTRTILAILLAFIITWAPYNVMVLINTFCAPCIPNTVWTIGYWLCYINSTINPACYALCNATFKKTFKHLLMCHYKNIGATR
Procedure: A. Blockade of Agonist-Mediated [^35S]GTPγS Binding
The functional potency of a test compound was determined by measuring the ability of the compound to block oxotremorine-stimulated [^35S]GTPγS binding in CHO-K1 cells expressing the hM2 receptor.
At the time of use, frozen membranes were thawed and then diluted in assay buffer with a final target tissue concentration of 5-10 μg protein per well. The membranes were briefly homogenized using a Polytron PT-2100 tissue disrupter and then added to the assay plates.
The assay plates were then incubated at 37° C. for 60 minutes. The assay plates were filtered over 1% BSA-pretreated GF/B filters using a PerkinElmer 96-well harvester. The plates were rinsed with ice-cold wash buffer for 3×3 seconds and then air or vacuum dried. Microscint-20 scintillation liquid (50 μL) was added to each well, and each plate was sealed and radioactivity counted on a Topcounter (PerkinElmer). Data were analyzed by nonlinear regression analysis with the GraphPad Prism Software package (GraphPad Software, Inc., San Diego, Calif.) using the non-linear regression, one-site competition equation. The Cheng-Prusoff equation was used to calculate the Ki, using the IC50 values of the concentration-response curve for the test compound and the oxotremorine concentration in the assay as the KD and [L], ligand concentration, respectively.

β2 adrenergic receptor [1] = target: T2, β2 adrenergic receptor (Homo sapiens, UniProt P07550); assay: Whole-cell cAMP Flashplate assay with lung epithelial cell line (BEAS-2B) endogenously expressing human β2 adrenergic receptor; assay type: cell-based; design: a cell line expressing endogenous levels of the β2 adrenergic receptor, a human lung epithelial cell line (BEAS-2B) was used; host or cells: BEAS-2B human lung epithelial cells; conditions: BEAS-2B human lung epithelial cell line, endogenous receptor
T2 sequence (P07550 whole entry): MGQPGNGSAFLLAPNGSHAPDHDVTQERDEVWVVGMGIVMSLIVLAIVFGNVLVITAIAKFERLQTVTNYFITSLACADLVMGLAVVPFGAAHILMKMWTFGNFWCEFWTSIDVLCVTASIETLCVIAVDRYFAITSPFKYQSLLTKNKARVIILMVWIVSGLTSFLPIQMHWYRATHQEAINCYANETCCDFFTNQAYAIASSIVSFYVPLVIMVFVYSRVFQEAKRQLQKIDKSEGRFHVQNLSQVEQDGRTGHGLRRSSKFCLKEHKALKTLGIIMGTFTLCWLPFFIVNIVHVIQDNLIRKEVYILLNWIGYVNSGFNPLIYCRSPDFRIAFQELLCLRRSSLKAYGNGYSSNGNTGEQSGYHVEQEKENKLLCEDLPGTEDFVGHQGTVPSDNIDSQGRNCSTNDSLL
Procedure: On the day of the assay, cells were rinsed with PBS, lifted by scraping with 5 mM EDTA in PBS, and counted. Cells were pelleted by centrifugation at 1,000 rpm and re-suspended in stimulation buffer pre-warmed to 37° C. at a final concentration of 600,000 cells/mL. Cells were used at a final concentration of 100,000 to 120,000 cells/well in this assay. […] Test compounds were tested in the assay at 11 different concentrations, ranging from 10 μM to 10 pM. Reactions were incubated for 10 min at 37° C. and stopped by addition of 100 μL of ice-cold detection buffer. Plates were sealed, incubated over night at 4° C. and counted the next morning in a Topcount scintillation counter (Packard BioScience Co., Meriden, Conn.). […] Data were analyzed by nonlinear regression analysis with the GraphPad Prism Software package (GraphPad Software, Inc., San Diego, Calif.) using the 4-parameter model for sigmoidal dose-response.

hM3 receptor = target: T3, hM3 receptor (Homo sapiens, UniProt P20309); assay: Blockade of agonist-mediated calcium release via FLIPR assay (hM3); assay type: cell-based; conditions: CHO cells stably expressing hM3
T3 construct: expressed in transfected cells
T3 sequence (P20309 whole entry): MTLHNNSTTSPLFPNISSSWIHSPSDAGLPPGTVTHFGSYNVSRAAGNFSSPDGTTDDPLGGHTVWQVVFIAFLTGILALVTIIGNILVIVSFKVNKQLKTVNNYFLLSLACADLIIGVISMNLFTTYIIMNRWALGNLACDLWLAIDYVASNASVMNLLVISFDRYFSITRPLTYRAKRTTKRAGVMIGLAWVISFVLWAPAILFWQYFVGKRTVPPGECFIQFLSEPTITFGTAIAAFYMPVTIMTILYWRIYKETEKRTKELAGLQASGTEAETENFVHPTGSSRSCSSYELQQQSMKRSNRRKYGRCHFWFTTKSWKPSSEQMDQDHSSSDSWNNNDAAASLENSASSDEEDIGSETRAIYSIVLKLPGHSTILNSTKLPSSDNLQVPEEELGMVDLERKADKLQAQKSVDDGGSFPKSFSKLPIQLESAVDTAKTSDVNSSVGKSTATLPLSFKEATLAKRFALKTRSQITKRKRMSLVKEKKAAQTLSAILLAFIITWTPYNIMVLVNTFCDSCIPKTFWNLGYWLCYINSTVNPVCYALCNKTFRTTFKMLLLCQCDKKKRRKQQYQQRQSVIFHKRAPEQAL
From the text: B. Blockade of Agonist-Mediated Calcium Release Via FLIPR Assays
Muscarinic receptor subtypes (M1, M3 and M5 receptors), which couple to Gq proteins, activate the phospholipase C (PLC) pathway upon agonist binding to the receptor. As a result, activated PLC hydrolyzes phosphatyl inositol diphosphate (PIP2) to diacylglycerol (DAG) and phosphatidyl-1,4,5-triphosphate (IP3), which in turn generates calcium release from intracellular stores, i.e., endoplasmic and sarcoplasmic reticulum. […] This fluorescence event is measured in real time by the FLIPR, which detects the change in fluorescence from a monolayer of cells cloned with human M1 and M3, and chimpanzee M5 receptors. Antagonist potency can be determined by the ability of antagonists to inhibit agonist-mediated increases in intracellular calcium. […]
To determine antagonist potency, the dose-dependent stimulation of intracellular Ca^2+ release for oxotremorine was first determined so that antagonist potency can later be measured against oxotremorine stimulation at an EC90 concentration. […]
The parameters used for the FLIPR were: exposure length of 0.4 seconds, laser strength of 0.5 watts, excitation wavelength of 488 nm, and emission wavelength of 550 nm. Baseline was determined by measuring the change in fluorescence for 10 seconds prior to addition of agonist. […]

β2 adrenergic receptor [2] = target: T2, β2 adrenergic receptor; assay: Whole-cell cAMP Flashplate assay in CHO cell lines heterologously expressing human β2 adrenergic receptor; assay type: cell-based; design: expressed in transfected cells; conditions: CHO-K1 cells expressing cloned human β2
Procedure: Cells were rinsed with PBS and detached in dPBS (Dulbecco's Phosphate Buffered Saline, without CaCl2 and MgCl2) containing 2 mM EDTA or Trypsin-EDTA solution (0.05% trypsin/0.53 mM EDTA). […] Test compounds (10 mM in DMSO) were diluted into PBS containing 0.1% BSA in Beckman Biomek-2000 and tested at 11 different concentrations ranging from 100 μM to 1 pM. […] Data were analyzed by nonlinear regression analysis with the GraphPad Prism Software package (GraphPad Software, Inc., San Diego, Calif.) with the sigmoidal equation.

COc1cc(NC(=O)CCN2CCC(OC(=O)Nc3ccccc3-c3ccccc3)CC2)c(Cl)cc1CNC[C@H](O)c1ccc(O)c2[nH]c(=O)ccc12 [compound of formula I, biphenyl-2-ylcarbamic acid 1-[2-(2-chloro-4-{[(R)-2-hydroxy-2-(8-hydroxy-2-oxo-1,2-dihydroquinolin-5-yl)ethylamino]methyl}-5-methoxyphenylcarbamoyl)ethyl]piperidin-4-yl ester]
< 10 nM: Ki (hM2 receptor) | EC50 (β2 adrenergic receptor [1]) | Ki (hM3 receptor) | EC50 (β2 adrenergic receptor [2])
